Laboratory results from ChEMBL document CHEMBL3046319, “PCR-RFLP detection of the E198A mutation conferring resistance to benzimidazoles in field isolates of Monilinia laxa from Greece” (Crop Prot, 2012).
Converted amounts (≈) assume the structure as drawn. The source made the active and inactive calls. The calls are words filed in the database; no cut-off is given here.

What was measured:
Monilinia laxa [1] = assay: Fungicidal activity against Monilinia laxa isolate MLBO3 assessed as reduction in mycelial growth rate at 25 degC after 4 days; format: functional, organism-based; details: isolate MLBO3, 96 h
Monilinia laxa [2] = assay: Fungicidal activity against Monilinia laxa isolate MLB1 assessed as reduction in mycelial growth rate at 25 degC after 4 days; format: functional, organism-based; details: isolate MLB1, 96 h
Monilinia laxa [3] = assay: Fungicidal activity against Monilinia laxa isolate MLP2 assessed as reduction in mycelial growth rate at 1 to 10 ug/ml at 31 degC after 5 days; format: functional, organism-based
Monilinia laxa [4] = assay: Fungicidal activity against Monilinia laxa isolate MLK6 assessed as reduction in mycelial growth rate at 1 to 10 ug/ml at 31 degC after 5 days; format: functional, organism-based
Monilinia laxa [5] = assay: Fungicidal activity against Monilinia laxa isolate MLK2 assessed as reduction in mycelial growth rate at 1 to 10 ug/ml at 31 degC after 5 days; format: functional, organism-based
Monilinia laxa [6] = assay: Fungicidal activity against Monilinia laxa isolate MLKS2 assessed as reduction in mycelial growth rate at 1 to 10 ug/ml at 31 degC after 5 days; format: functional, organism-based
Monilinia laxa [7] = assay: Fungicidal activity against Monilinia laxa isolate MLG5 assessed as reduction in mycelial growth rate at 1 to 10 ug/ml at 31 degC after 5 days; format: functional, organism-based
Monilinia laxa [8] = assay: Fungicidal activity against Monilinia laxa isolate MLG3 assessed as reduction in mycelial growth rate at 1 to 10 ug/ml at 31 degC after 5 days; format: functional, organism-based
Monilinia laxa [9] = assay: Fungicidal activity against Monilinia laxa isolate MLK1 assessed as mean number of conidia produced in the colony at 25 degC after 12 days by haemocytometer; format: functional
Monilinia laxa [10] = assay: Fungicidal activity against Monilinia laxa isolate MLC2 assessed as mean number of conidia produced in the colony at 25 degC after 12 days by haemocytometer; format: functional
Monilinia laxa [11] = assay: Fungicidal activity against Monilinia laxa isolate MLBO5 assessed as mean number of conidia produced in the colony at 25 degC after 12 days by haemocytometer; format: functional
Monilinia laxa [12] = assay: Fungicidal activity against Monilinia laxa isolate MLA1 assessed as mean number of conidia produced in the colony at 25 degC after 12 days by haemocytometer; format: functional
Monilinia laxa [13] = assay: Fungicidal activity against Monilinia laxa isolate MLK12 assessed as mean mycelial colony diameter at 25 degC after 4 days; format: functional
Monilinia laxa [14] = assay: Fungicidal activity against Monilinia laxa isolate MLK1 assessed as mean mycelial colony diameter at 25 degC after 4 days; format: functional
Monilinia laxa [15] = assay: Fungicidal activity against Monilinia laxa isolate MLK12 assessed as mycelial growth at 1 ug/ml at 25 degC after 4 days; format: functional
Monilinia laxa [16] = assay: Fungicidal activity against Monilinia laxa isolate MLNS1 assessed as reduction in mycelial growth rate at 1 to 10 ug/ml at 28 degC after 8 days; format: functional, organism-based
Monilinia laxa [17] = assay: Fungicidal activity against Monilinia laxa isolate MLX1 assessed as reduction in mycelial growth rate at 1 to 10 ug/ml at 28 degC after 8 days; format: functional, organism-based
Monilinia laxa [18] = assay: Fungicidal activity against Monilinia laxa isolate MLP7 assessed as reduction in mycelial growth rate at 1 to 10 ug/ml at 28 degC after 8 days; format: functional, organism-based
Monilinia laxa [19] = assay: Fungicidal activity against Monilinia laxa isolate MLP4 assessed as reduction in mycelial growth rate at 1 to 10 ug/ml at 28 degC after 8 days; format: functional, organism-based
Monilinia laxa [20] = assay: Fungicidal activity against Monilinia laxa isolate MLK12 assessed as reduction in mycelial growth rate at 1 to 10 ug/ml at 28 degC after 8 days; format: functional, organism-based
Monilinia laxa [21] = assay: Fungicidal activity against Monilinia laxa isolate MLB1 assessed as reduction in mycelial growth rate at 1 to 10 ug/ml at 28 degC after 8 days; format: functional, organism-based
Monilinia laxa [22] = assay: Fungicidal activity against Monilinia laxa isolate KX5 assessed as reduction in mycelial growth rate at 1 to 10 ug/ml at 31 degC after 5 days; format: functional, organism-based
Monilinia laxa [23] = assay: Fungicidal activity against Monilinia laxa isolate MLK12 assessed as reduction in mycelial growth rate at 1 to 10 ug/ml at 25 to 28 degC; format: functional, organism-based
Monilinia laxa [24] = assay: Fungicidal activity against Monilinia laxa isolate MLK2 assessed as reduction in mycelial growth rate at 1 to 10 ug/ml at 25 to 28 degC; format: functional, organism-based
Monilinia laxa [25] = assay: Fungicidal activity against Monilinia laxa isolate MLB1 assessed as reduction in mycelial growth rate at 1 to 10 ug/ml at 25 to 28 degC; format: functional, organism-based
Monilinia laxa [26] = assay: Fungicidal activity against Monilinia laxa isolate MLA1 assessed as mycelial growth at 1 ug/ml at 25 degC after 4 days; format: functional
Monilinia laxa [27] = assay: Fungicidal activity against Monilinia laxa isolate MLKS1 assessed as reduction in mycelial growth rate at 25 degC after 4 days; format: functional, organism-based; details: isolate MLKS1, 96 h
Monilinia laxa [28] = assay: Fungicidal activity against Monilinia laxa isolate MLX5 assessed as mycelial growth at 1 ug/ml at 25 degC after 4 days; format: functional
Monilinia laxa [29] = assay: Fungicidal activity against Monilinia laxa isolate MLP2 assessed as mycelial growth at 1 ug/ml at 25 degC after 4 days; format: functional
Monilinia laxa [30] = assay: Fungicidal activity against Monilinia laxa isolate MLBO5 assessed as mycelial growth at 1 ug/ml at 25 degC after 4 days; format: functional
Monilinia laxa [31] = assay: Fungicidal activity against Monilinia laxa isolate MLK12 assessed as virulence in prune fruits assessed as virulence treated 10 min prior to mycelial inoculation at 24 degC after 10 days relative to isolate MLX1by pathogenicity bioassay; format: functional
Monilinia laxa [32] = assay: Fungicidal activity against Monilinia laxa isolate MLBO1 assessed as reduction in mycelial growth rate at 1 to 10 ug/ml at 31 degC after 5 days; format: functional, organism-based
Monilinia laxa [33] = assay: Fungicidal activity against Monilinia laxa isolate MLA1 assessed as reduction in mycelial growth rate at 1 to 10 ug/ml at 31 degC after 5 days; format: functional, organism-based
Monilinia laxa [34] = assay: Fungicidal activity against Monilinia laxa isolate MLNS2 assessed as reduction in mycelial growth rate at 1 to 10 ug/ml at 31 degC after 5 days; format: functional, organism-based
Monilinia laxa [35] = assay: Fungicidal activity against Monilinia laxa isolate MLX4 assessed as reduction in mycelial growth rate at 1 to 10 ug/ml at 31 degC after 5 days; format: functional, organism-based
Monilinia laxa [36] = assay: Fungicidal activity against Monilinia laxa isolate MLX2 assessed as reduction in mycelial growth rate at 1 to 10 ug/ml at 31 degC after 5 days; format: functional, organism-based
Monilinia laxa [37] = assay: Fungicidal activity against Monilinia laxa isolate MLX1 assessed as reduction in mycelial growth rate at 1 to 10 ug/ml at 31 degC after 5 days; format: functional, organism-based
Monilinia laxa [38] = assay: Fungicidal activity against Monilinia laxa isolate KX2 assessed as reduction in mycelial growth rate at 25 degC after 4 days; format: functional, organism-based; details: isolate KX2, 96 h
Monilinia laxa [39] = assay: Fungicidal activity against Monilinia laxa isolate KX1 assessed as reduction in mycelial growth rate at 25 degC after 4 days; format: functional, organism-based; details: isolate KX1, 96 h
Monilinia laxa [40] = assay: Fungicidal activity against Monilinia laxa isolate MLK24 assessed as reduction in mycelial growth rate at 25 degC after 4 days; format: functional, organism-based; details: isolate MLK24, 96 h
Monilinia laxa [41] = assay: Fungicidal activity against Monilinia laxa isolate MLK12 assessed as reduction in mycelial growth rate at 25 degC after 4 days; format: functional, organism-based; details: isolate MLK12, 96 h
Monilinia laxa [42] = assay: Fungicidal activity against Monilinia laxa isolate MLK1 assessed as reduction in mycelial growth rate at 25 degC after 4 days; format: functional, organism-based; details: isolate MLK1, 96 h

In the case of `COC(=O)Nc1nc2ccccc2[nH]1` [CARBENDAZIM], the EC50 (Monilinia laxa [1]) is reported as 0.05 µg/mL (≈ 0.262 µM), the EC50 (Monilinia laxa [2]) is reported as over 50 µg/mL and the inhibition (Monilinia laxa [3]) is reported as “Active”. For the same compound, the inhibition (Monilinia laxa [4]) was “Active”, the inhibition (Monilinia laxa [5]) was “Active” and the inhibition (Monilinia laxa [6]) was “Active”. The inhibition (Monilinia laxa [7]) was “Active”, the inhibition (Monilinia laxa [8]) was “Active” and the Activity (Monilinia laxa [9]) was 6.55 /cm2. For the same compound, the Activity (Monilinia laxa [10]) was 5 /cm2, the Activity (Monilinia laxa [11]) was 3.92 /cm2 and the Activity (Monilinia laxa [12]) was 5 /cm2. It also gave an Activity (Monilinia laxa [13]) of 31 mm, an Activity (Monilinia laxa [14]) of 30.55 mm and an Activity (Monilinia laxa [15]) of 95.82%. For the same compound, the inhibition (Monilinia laxa [16]) was “inactive”, the inhibition (Monilinia laxa [17]) was “inactive” and the inhibition (Monilinia laxa [18]) was “inactive”. The inhibition (Monilinia laxa [19]) was “inactive”, the inhibition (Monilinia laxa [20]) was “inactive” and the inhibition (Monilinia laxa [21]) was “inactive”. The inhibition (Monilinia laxa [22]) was “Active”, the inhibition (Monilinia laxa [23]) was “inactive” and the inhibition (Monilinia laxa [24]) was “inactive”. The inhibition (Monilinia laxa [25]) was “inactive”, the Activity (Monilinia laxa [26]) was 0% and the EC50 (Monilinia laxa [27]) was 0.11 µg/mL (≈ 0.575 µM). The Activity (Monilinia laxa [28]) was 0%, the Activity (Monilinia laxa [29]) was 0% and the Activity (Monilinia laxa [30]) was 0%. For the same compound, the Activity (Monilinia laxa [31]) was 99.2%, the inhibition (Monilinia laxa [32]) was “Active” and the inhibition (Monilinia laxa [33]) was “Active”. The inhibition (Monilinia laxa [34]) was “Active”, the inhibition (Monilinia laxa [35]) was “Active” and the inhibition (Monilinia laxa [36]) was “Active”. For the same compound, the inhibition (Monilinia laxa [37]) was “Active”, the EC50 (Monilinia laxa [38]) was 0.08 µg/mL (≈ 0.418 µM) and the EC50 (Monilinia laxa [39]) was 0.06 µg/mL (≈ 0.314 µM). The EC50 (Monilinia laxa [40]) was 0.02 µg/mL (≈ 0.105 µM), the EC50 (Monilinia laxa [41]) was over 50 µg/mL and the EC50 (Monilinia laxa [42]) was over 50 µg/mL.
